Results on one molecule are retold here after patent US10456389B2, “Extended release nicotinamide formulation” (Ferring B.V., priority 2013, dated 2019).

Values after ≈ are worked out from the molar mass of the structure shown. A value given as a limit tells only on which side of the number the result lay.

Data set [1] in a line: Release testing, USP paddle apparatus, purified water, UV at 260 nm. Type of data set: physicochemical. Particulars: raw material, 0.2 g in 100 ml water; FIG. 1. Here is the method: Dissolution experiments were performed in a Sotax AT7 Dissolution apparatus, USP paddle.
All assays were performed in a Shimadzu UV-1700 spectrophotometer.
Release testing was performed in a USP paddle apparatus using 500 ml purified water as release medium and operated at 100 rpm. The results were quantified by a Shimadzu spectrophotometer at 260 nm after dilution 1:50.
To assess whether the ethylcellulose film coating was able to delay the release of nicotinamide, the release from the coated 95% granules (RD1302-2-C1) was tested and compared to the release from the raw material. Nicotinamide from the raw material (0.2 g in 100 ml water) was dissolved very quickly and within 5 minutes. […] Release of the remaining nicotinamide started later than 30 minutes, and after 3 hours 85% had been released. This means that release of nicotinamide can be released over 3 hours by applying an ethylcellulose film.

The conditions of data set [2]: cited from earlier work.

Consider `NC(=O)c1cccnc1` [Nicotinamide], for which, in data set [1], the Time until dissolved was no more than 5 min. Moreover, the “Solubility in 96% ethanol” value in data set [2] (96% ethanol) is 660 mg/mL (≈ 5400 mM). Also, the Solubility in water in data set [2] (water, 20° C.) was 690 mg/mL (≈ 5650 mM).
